The text below walks through data of patent US9309263B2, “Fused multi-cyclic sulfone compounds as inhibitors of beta-secretase and methods of use thereof” (AMGEN INC., priority 2013, dated 2016).

Test [1] concerns the target Beta Secretase enzyme (BACE) (Homo sapiens, UniProt P56817). In words: In vitro enzymatic BACE FRET assay. The class given is biochemical. The note with it: average IC50, in vitro enzymatic BACE FRET assay; read-out: BACE1 FRET assay IC50. A digest of the protocol:
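Cleavage of a quenched 50 nM FRET peptide substrate, read as fluorescence (excitation 488 nm, […]) after 1 h and Tris quench to neutrality. Buffer: 0.05 M acetate pH 4.2 with 10% DMSO and 100 uM genapol. Inhibitor dilutions were pre-incubated 1 h with 0.2 nM enzyme.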

In test [2] the test system is Aβ 40 in conditioned medium of cells stably expressing Amyloid Precursor Protein (APP). In words: In vitro BACE cell-based assay (Aβ 40 sandwich ELISA). Particulars: Homo sapiens, HEK293; average IC50, HEK cell assay, Aβ 40 readout. The essentials: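 Aβ40 in conditioned medium measured by pAb40/biotin-6E10 sandwich ELISA with time-resolved europium fluorescence, after 24 h exposure of stable APP cells to compounds (10-point series starting 100 μM or 10 μM; 0.1% DMSO). IC50 fitted from percent of control against concentration.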

The target of a further test is Cathepsin D (Cat D) (Homo sapiens, UniProt P07339). In words: In vitro enzymatic Cathepsin D (Cat D) FRET assay. It counts as biochemical. The note with it: Cathepsin D FRET assay; read-out: CatD IC50. A digest of the protocol:
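FRET peptide substrate (20 nM) is cleaved by CHO-derived recombinant enzyme (9 nM) for 1 h after a 1 h inhibitor pre-incubation, at pH 3.5 in citrate buffer with 5 mM CHAPS and 10% DMSO. Tris addition ends the reaction; fluorescence measured at 500 nm excitation, 580 nm emission.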

SMILES strings stand for the structures. Some results are limits rather than exact numbers.

Sequence of Beta Secretase enzyme (BACE) (P56817 46-501): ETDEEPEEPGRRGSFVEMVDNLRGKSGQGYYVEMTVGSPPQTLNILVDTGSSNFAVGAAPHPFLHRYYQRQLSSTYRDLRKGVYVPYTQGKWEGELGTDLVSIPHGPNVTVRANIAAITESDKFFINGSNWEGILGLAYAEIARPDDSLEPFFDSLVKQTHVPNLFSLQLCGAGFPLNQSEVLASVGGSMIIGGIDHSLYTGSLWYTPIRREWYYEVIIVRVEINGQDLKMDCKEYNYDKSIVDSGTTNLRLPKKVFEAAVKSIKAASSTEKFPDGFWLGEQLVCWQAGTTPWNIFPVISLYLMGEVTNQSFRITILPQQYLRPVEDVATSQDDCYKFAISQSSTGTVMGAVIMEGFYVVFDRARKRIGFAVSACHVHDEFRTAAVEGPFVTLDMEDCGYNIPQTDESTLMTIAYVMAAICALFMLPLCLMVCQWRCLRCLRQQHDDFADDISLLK
Sequence of Cathepsin D (Cat D) (P07339 65-412, species assumed): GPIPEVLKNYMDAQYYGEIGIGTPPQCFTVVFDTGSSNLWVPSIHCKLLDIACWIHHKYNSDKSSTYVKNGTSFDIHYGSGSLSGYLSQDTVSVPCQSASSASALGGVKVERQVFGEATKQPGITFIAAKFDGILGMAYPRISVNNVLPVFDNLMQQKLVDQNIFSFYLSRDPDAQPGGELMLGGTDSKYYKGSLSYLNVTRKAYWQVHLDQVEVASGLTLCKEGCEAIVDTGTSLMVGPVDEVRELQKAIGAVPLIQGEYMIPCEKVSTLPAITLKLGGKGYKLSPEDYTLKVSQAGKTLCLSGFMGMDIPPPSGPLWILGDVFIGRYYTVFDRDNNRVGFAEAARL

In the case of `COc1cnc(C(=O)Nc2ccc3c(c2)[C@@]2(C)N=C(N)C(C)(C)S(=O)(=O)[C@@H]2CC(C)(C)O3)c(C)n1` [Example 101, N-((4aR,11bR)-2-amino-3,3,6,6,11b-pentamethyl-4,4-dioxido-4a,5,6,11b-tetrahydro-3H-[1]benzoxepino[4,5-b][1,4]thiazin-10-yl)-5-methoxy-3-methyl-2-pyrazinecarboxamide], the IC50 was 0.029 µM in test [1], 0.019 µM in test [2] and 835 µM at Cathepsin D (Cat D).

Regarding `CC#CCOc1cnc(C(=O)Nc2ccc3c(c2)[C@@]2(C)N=C(N)C(C)(C)S(=O)(=O)[C@H]2CC(C)(C)O3)cn1` [Example 102, N-((4aS,11bR)-2-amino-3,3,6,6,11b-pentamethyl-4,4-dioxido-4a,5,6,11b-tetrahydro-3H-[1]benzoxepino[4,5-b][1,4]thiazin-10-yl)-5-(2-butyn-1-yloxy)-2-pyrazinecarboxamide], the IC50 in test [1] was determined as 0.001 µM; in test [2] it was 0.002 µM; on Cathepsin D (Cat D), 284 µM.

Turning to `Cc1cc(C(F)(F)F)cnc1C(=O)Nc1ccc2c(c1)[C@@]1(C)N=C(N)C(C)(C)S(=O)(=O)[C@H]1CC(C)(C)O2` [Example 103, N-((4aS,11bR)-2-amino-3,3,6,6,11b-pentamethyl-4,4-dioxido-4a,5,6,11b-tetrahydro-3H-[1]benzoxepino[4,5-b][1,4]thiazin-10-yl)-3-methyl-5-(trifluoromethyl)-2-pyridinecarboxamide], the IC50 was 0.018 µM in test [1], 0.023 µM in test [2] and 143 µM at Cathepsin D (Cat D).

In the case of `Cc1cc(C(F)(F)F)cnc1C(=O)Nc1ccc2c(c1)[C@@]1(CF)N=C(N)C(C)(C)S(=O)(=O)[C@H]1C[C@H](C)O2` [Example 105, N-((4aS,6S,11bS)-2-amino-11b-(fluoromethyl)-3,3,6-trimethyl-4,4-dioxido-4a,5,6,11b-tetrahydro-3H-[1]benzoxepino[4,5-b][1,4]thiazin-10-yl)-3-methyl-5-(trifluoromethyl)-2-pyridinecarboxamide], the IC50 is 0.004 µM in test [1], 0.013 µM in test [2] and 1480 µM on Cathepsin D (Cat D).

As to `COc1cnc(C(=O)Nc2ccc3c(c2)[C@@]2(CF)N=C(N)C(C)(C)S(=O)(=O)[C@@H]2C[C@H](C)O3)cn1` [Example 107, N-((4aR,6S,11bS)-2-amino-11b-(fluoromethyl)-3,3,6-trimethyl-4,4-dioxido-4a,5,6,11b-tetrahydro-3H-[1]benzoxepino[4,5-b][1,4]thiazin-10-yl)-5-methoxy-2-pyrazinecarboxamide], the IC50 in test [1] was 0.095 µM; in test [2], 0.11 µM; at Cathepsin D (Cat D), more than 400 µM.

As to `COc1cnc(C(=O)Nc2ccc3c(c2)[C@@]2(CF)N=C(N)C(C)(C)S(=O)(=O)[C@H]2C[C@H](C)O3)cn1` [Example 108, N-((4aS,6S,11bS)-2-amino-11b-(fluoromethyl)-3,3,6-trimethyl-4,4-dioxido-4a,5,6,11b-tetrahydro-3H-[1]benzoxepino[4,5-b][1,4]thiazin-10-yl)-5-methoxy-2-pyrazinecarboxamide], the IC50 in test [1] came to 0.013 µM; in test [2], 0.018 µM; on Cathepsin D (Cat D) it was 388 µM.

With `C[C@H]1C[C@H]2[C@](CF)(N=C(N)C(C)(C)S2(=O)=O)c2cc(Nc3nccc4cc(C#N)cnc34)ccc2O1` [Example 109, 8-(((4aS,6S,11bS)-2-amino-11b-(fluoromethyl)-3,3,6-trimethyl-4,4-dioxido-4a,5,6,11b-tetrahydro-3H-[1]benzoxepino[4,5-b][1,4]thiazin-10-yl)amino)-1,7-naphthyridine-3-carbonitrile], the IC50 in test [1] was 0.003 µM; in test [2], 0.008 µM; on Cathepsin D (Cat D), more than 400 µM.

In the case of `C[C@H]1C[C@@H]2[C@](CF)(N=C(N)C(C)(C)S2(=O)=O)c2cc(Nc3nccc4cc(C#N)cnc34)ccc2O1` [Example 110, 8-(((4aR,6S,11bS)-2-amino-11b-(fluoromethyl)-3,3,6-trimethyl-4,4-dioxido-4a,5,6,11b-tetrahydro-3H-[1]benzoxepino[4,5-b][1,4]thiazin-10-yl)amino)-1,7-naphthyridine-3-carbonitrile], the IC50 in test [1] is 0.013 µM; in test [2] it was 0.021 µM; at Cathepsin D (Cat D), more than 400 µM.

With `Cc1cc(C#N)cnc1C(=O)Nc1ccc2c(c1)[C@@]1(C)N=C(N)C(C)(C)S(=O)(=O)[C@]1(F)CCO2` [Example 111, N-((4aR,11bR)-2-amino-4a-fluoro-3,3,11b-trimethyl-4,4-dioxido-4a,5,6,11b-tetrahydro-3H-[1]benzoxepino[4,5-b][1,4]thiazin-10-yl)-5-cyano-3-methyl-2-pyridinecarboxamide], the values for the 50% inhibitory concentration (IC50) (in test [1]; in test [2]; at Cathepsin D (Cat D)) were 0.005 µM, 0.019 µM and 331 µM, respectively.

Turning to `CC1(C)C[C@@H]2[C@](C)(N=C(N)C(C)(C)S2(=O)=O)c2cc(Nc3nccc4cc(C#N)cnc34)ccc2O1` [Example 112, 8-(((4aR,11bR)-2-amino-3,3,6,6,11b-pentamethyl-4,4-dioxido-4a,5,6,11b-tetrahydro-3H-[1]benzoxepino[4,5-b][1,4]thiazin-10-yl)amino)-1,7-naphthyridine-3-carbonitrile], the values for the IC50 (in test [1]; in test [2]; at Cathepsin D (Cat D)) were 0.003 µM, 0.002 µM and 316 µM, respectively.

On to `Cc1cc(C(F)(F)F)cnc1C(=O)Nc1ccc2c(c1)[C@@]1(C)N=C(N)C(C)(C)S(=O)(=O)[C@@H]1CC(C)(C)O2` [Example 113, N-((4aR,11bR)-2-amino-3,3,6,6,11b-pentamethyl-4,4-dioxido-4a,5,6,11b-tetrahydro-3H-[1]benzoxepino[4,5-b][1,4]thiazin-10-yl)-3-methyl-5-(trifluoromethyl)-2-pyridinecarboxamide], for which the half-maximal inhibitory concentration (IC50) in test [1] was 0.006 µM; in test [2], 0.002 µM; at Cathepsin D (Cat D), 1200 µM.

On to `Cc1cc(Cl)cnc1C(=O)Nc1ccc2c(c1)[C@@]1(C)N=C(N)C(C)(C)S(=O)(=O)[C@@H]1CCS2` [Example 114, N-((4aR,11bR)-2-amino-3,3,11b-trimethyl-4,4-dioxido-4a,5,6,11b-tetrahydro-3H-[1]benzothiepino[4,5-b][1,4]thiazin-10-yl)-5-chloro-3-methyl-2-pyridinecarboxamide], for which the results for the IC50 (in test [1]; in test [2]; at Cathepsin D (Cat D)) were 0.001 µM, 0.012 µM and 292 µM, respectively.

For the compound `Cc1cc(Cl)cnc1C(=O)Nc1ccc2c(c1)[C@@]1(C)N=C(N)C(C)(C)S(=O)(=O)[C@H]1CCS2` [Example 115, N-((4aS,11bR)-2-amino-3,3,11b-trimethyl-4,4-dioxido-4a,5,6,11b-tetrahydro-3H-[1]benzothiepino[4,5-b][1,4]thiazin-10-yl)-5-chloro-3-methyl-2-pyridinecarboxamide], the IC50 in test [1] came out at 0.006 µM; in test [2], 0.012 µM; at Cathepsin D (Cat D), 276 µM.

On to `Cc1cc(C(F)(F)F)cnc1C(=O)Nc1ccc2c(c1)[C@@]1(CF)N=C(N)C(C)(C)S(=O)(=O)[C@H]1CCO2` [Example 116, N-((4aS,11bS)-2-amino-11b-(fluoromethyl)-3,3-dimethyl-4,4-dioxido-4a,5,6,11b-tetrahydro-3H-[1]benzoxepino[4,5-b][1,4]thiazin-10-yl)-3-methyl-5-(trifluoromethyl)-2-pyridinecarboxamide], for which the results for the IC50 (in test [1]; in test [2]; on Cathepsin D (Cat D)) were 0.011 µM, 0.014 µM and more than 400 µM, respectively.

Take `COc1cnc(C(=O)Nc2ccc3c(c2)[C@@]2(C)N=C(N)C(C)(C)S(=O)(=O)[C@@H]2CCS3)cn1` [Example 117, N-((4aR,11bR)-2-amino-3,3,11b-trimethyl-4,4-dioxido-4a,5,6,11b-tetrahydro-3H-[1]benzothiepino[4,5-b][1,4]thiazin-10-yl)-5-methoxy-2-pyrazinecarboxamide]: the IC50 in test [1] amounted to 0.014 µM; in test [2] it was 0.003 µM; on Cathepsin D (Cat D), 168 µM.

As to `Cc1cc(OC(F)F)cnc1C(=O)Nc1ccc2c(c1)[C@@]1(C)N=C(N)C(C)(C)S(=O)(=O)[C@@H]1CCS2` [Example 118], the results for the 50% inhibitory concentration (IC50) (in test [1]; in test [2]; on Cathepsin D (Cat D)) were 0.002 µM, 0.002 µM and 207 µM, respectively.

Take `Cc1cc(C(F)(F)F)cnc1C(=O)Nc1ccc2c(c1)[C@@]1(CF)N=C(N)C(C)(C)S(=O)(=O)[C@@H]1CCO2` [Example 119, N-((4aR,11bS)-2-amino-11b-(fluoromethyl)-3,3-dimethyl-4,4-dioxido-4a,5,6,11b-tetrahydro-3H-[1]benzoxepino[4,5-b][1,4]thiazin-10-yl)-3-methyl-5-(trifluoromethyl)-2-pyridinecarboxamide]: the IC50 turned out to be 0.024 µM in test [1], 0.019 µM in test [2] and 3360 µM on Cathepsin D (Cat D).

In the case of `CC1(C)C(N)=N[C@]2(CF)c3cc(NC(=O)c4cnc(C(F)(F)F)cn4)ccc3OCC[C@@H]2S1(=O)=O` [Example 120, N-((4aS,11bS)-2-amino-11b-(fluoromethyl)-3,3-dimethyl-4,4-dioxido-4a,5,6,11b-tetrahydro-3H-[1]benzoxepino[4,5-b][1,4]thiazin-10-yl)-5-(trifluoromethyl)-2-pyrazinecarboxamide], the results for the IC50 (in test [1]; in test [2]; at Cathepsin D (Cat D)) were 0.082 µM, 0.148 µM and 752 µM, respectively.
